Measured values reported in patent US20220169629A1, “PESTICIDALLY ACTIVE DIAZINE-AMIDE COMPOUNDS” (SYNGENTA CROP PROTECTION AG, priority 2019, published 2022).

How the values were obtained:
Type in all cases: in vivo
[1] = system: Spodoptera littoralis (Egyptian cotton leaf worm); experiment: Example B7: Spodoptera littoralis (Egyptian cotton leaf worm), sprayed cotton leaf discs, L1 larvae; conditions: foliar, 72 h, application rate of 200 ppm, 3 days after infestation, L1 larvae on cotton leaf discs, read-out: control in at least one of the three categories (mortality, anti-feeding or growth inhibition)
Experimental: Example B7: Spodoptera littoralis (Egyptian Cotton Leaf Worm)
Cotton leaf discs were placed onto agar in 24-well microtiter plates and sprayed with aqueous test solutions prepared from 10′000 ppm DMSO stock solutions. After drying the leaf discs were infested with five L1 larvae. The samples were assessed for mortality, anti-feeding effect, and growth inhibition in comparison to untreated samples 3 days after infestation. Control of Spodoptera littoralis by a test sample is given when at least one of the categories mortality, anti-feedant effect, and growth inhibition is higher than the untreated sample.

[2] = system: Diabrotica balteata (corn root worm); experiment: Example B1: Diabrotica balteata (corn root worm), sprayed maize sprouts, L2 larvae; conditions: 96 h, application rate of 200 ppm, 4 days after infestation, L2 larvae on maize sprouts, read-out: control in at least one of the two categories (mortality or growth inhibition)
Experimental: Example B1: Diabrotica Balteata (Corn Root Worm)
Maize sprouts placed onto an agar layer in 24-well microtiter plates were treated with aqueous test solutions prepared from 10′000 ppm DMSO stock solutions by spraying. After drying, the plates were infested with L2 larvae (6 to 10 per well). The samples were assessed for mortality and growth inhibition in comparison to untreated samples 4 days after infestation.

[3] = system: Plutella xylostella (diamond back moth); experiment: Example B5: Plutella xylostella (diamond back moth), artificial diet, 24-well, eggs; conditions: 192 h, application rate of 200 ppm, 8 days after infestation, read-out: control in at least one of the two categories (mortality or growth inhibition)
Experimental: Example B5: Plutella xylostella (Diamond Back Moth)
24-well microtiter plates with artificial diet were treated with aqueous test solutions prepared from 10′000 ppm DMSO stock solutions by pipetting. After drying, Plutella eggs were pipetted through a plastic stencil onto a gel blotting paper and the plate was closed with it. The samples were assessed for mortality and growth inhibition in comparison to untreated samples 8 days after infestation.

[4] = system: Spodoptera littoralis (Egyptian cotton leaf worm); experiment: Example B8: Spodoptera littoralis (Egyptian cotton leaf worm), uptake by lettuce roots from agar; conditions: 144 h, test rate of 12.5 ppm, 6 days after infestation, compound absorbed by lettuce roots, read-out: control in at least one of the three categories (mortality, anti-feeding, or growth inhibition)
Description: Example B8: Spodoptera littoralis (Egyptian Cotton Leaf Worm)
Test compounds were applied by pipette from 10′000 ppm DMSO stock solutions into 24-well plates and mixed with agar. Lettuce seeds were placed onto the agar and the multi well plate was closed by another plate which contained also agar. After 7 days the compound was absorbed by the roots and the lettuce grew into the lid plate. The lettuce leaves were then cut off into the lid plate. Spodoptera eggs were pipetted through a plastic stencil onto a humid gel blotting paper and the lid plate was closed with it. The samples were assessed for mortality, anti-feedant effect and growth inhibition in comparison to untreated samples 6 days after infestation.

[5] = system: Plutella xylostella (diamondback moth); experiment: Example B10: Plutella xylostella (diamondback moth), 96-well artificial diet; conditions: 216 h, application rate of 500 ppm, 9 days after infestation, eggs/L1 larvae
Experimental: Example B10: Plutella xylostella (Diamondback Moth)
96-well microtiter plates containing artificial diet were treated with aqueous test solutions, prepared from 10′000 ppm DMSO stock solutions, by a liquid handling robot. After drying, eggs (˜30 per well) were infested onto a netted lid which was suspended above the diet. The eggs hatch and L1 larvae move down to the diet. The samples were assessed for mortality 9 days after infestation.

[6] = system: Chilo suppressalis (striped rice stemborer); experiment: Example B4: Chilo suppressalis (striped rice stemborer), artificial diet, L2 larvae; conditions: 144 h, application rate of 200 ppm, 6 days after infestation, L2 larvae on artificial diet, read-out: control in at least one of the three categories (mortality, anti-feeding or growth inhibition)
Experimental: Example B4: Chilo suppressalis (Striped rice stemborer)
24-well microtiter plates with artificial diet were treated with aqueous test solutions prepared from 10′000 ppm DMSO stock solutions by pipetting. After drying, the plates were infested with L2 larvae (6-8 per well). The samples were assessed for mortality, anti-feeding effect, and growth inhibition in comparison to untreated samples 6 days after infestation. Control of Chilo suppressalis by a test sample is given when at least one of the categories mortality, anti-feedant effect, and growth inhibition is higher than the untreated sample.

[7] = system: Euschistus heros (neotropical brown stink bug); experiment: Example B2: Euschistus heros (neotropical brown stink bug), sprayed soybean leaves, N2 nymphs; conditions: 120 h, application rate of 200 ppm, 5 days after infestation, N2 nymphs on soybean leaves, read-out: control in at least one of the two categories (mortality or growth inhibition)
Experimental: Example B2: Euschistus heros (Neotropical Brown Stink Bug)
Soybean leaves on agar in 24-well microtiter plates were sprayed with aqueous test solutions prepared from 10′000 ppm DMSO stock solutions. After drying the leaves were infested with N2 nymphs. The samples were assessed for mortality and growth inhibition in comparison to untreated samples 5 days after infestation.

[8] = system: Myzus persicae (green peach aphid); experiment: Example B6: Myzus persicae (green peach aphid), intrinsic activity; conditions: 120 h, test rate of 12 ppm, 5 days after infestation, sucrose solution, infested pea seedlings
Description: Example B6: Myzus persicae (Green Peach Aphid): Intrinsic Activity
Test compounds prepared from 10′000 ppm DMSO stock solutions were applied by pipette into 24-well microtiter plates and mixed with sucrose solution. The plates were closed with a stretched Parafilm. A plastic stencil with 24 holes was placed onto the plate and infested pea seedlings were placed directly on the Parafilm. The infested plate was closed with a gel blotting paper and another plastic stencil and then turned upside down. The samples were assessed for mortality 5 days after infestation.

[9] = system: Myzus persicae (green peach aphid); experiment: Example B9: Myzus persicae (green peach aphid), 96-well sucrose solution; conditions: 120 h, application rate of 50 ppm, 5 days after infestation
Description: Example B9: Myzus persicae (Green Peach Aphid)
Test compounds prepared from 10′000 ppm DMSO stock solutions were applied by a liquid handling robot into 96-well microtiter plates and mixed with a sucrose solution. Parafilm was stretched over the 96-well microtiter plate and a plastic stencil with 96 holes was placed onto the plate. Aphids were sieved into the wells directly onto the Parafilm. The infested plates were closed with a gel blotting card and a second plastic stencil and then turned upside down. The samples were assessed for mortality 5 days after infestation.

[10] = system: Bemisia tabaci (cotton white fly); experiment: Example B3: Bemisia tabaci (cotton white fly), feeding/contact activity; conditions: foliar, 144 h, application rate of 200 ppm, 6 days after incubation, adult white flies on cotton leaf discs
Experimental: Example B3: Bemisia tabaci (Cotton White Fly): Feeding/Contact Activity
Cotton leaf discs were placed on agar in 24-well microtiter plates and sprayed with aqueous test solutions prepared from 10′000 ppm DMSO stock solutions. After drying the leaf discs were infested with adult white flies. The samples were checked for mortality 6 days after incubation.

[11] = system: Tetranychus urticae (two-spotted spider mite); experiment: Example B11: Tetranychus urticae (two-spotted spider mite), feeding/contact activity; conditions: foliar, 192 h
Experimental: Example B11: Tetranychus urticae (Two-Spotted Spider Mite): Feeding/Contact Activity
Bean leaf discs on agar in 24-well microtiter plates were sprayed with aqueous test solutions prepared from 10′000 ppm DMSO stock solutions. After drying the leaf discs were infested with a mite population of mixed ages. The samples were assessed for mortality on mixed population (mobile stages) 8 days after infestation.

C[C@H](NC(=O)c1cc(C(F)(F)F)cc(C(F)(F)F)c1)c1nccnc1-c1ccc(OC(F)F)cn1 [Compound P24, N-[(1S)-1-[3-[5-(difluoromethoxy)-2-pyridyl]pyrazin-2-yl]ethyl]-3,5-bis(trifluoromethyl)benzamide]
≥ 80%: percent control (mortality, anti-feeding or growth inhibition) at 200 ppm [1] | percent control (mortality or growth inhibition) at 200 ppm [2] | percent control (mortality or growth inhibition) at 200 ppm [3] | percent control (mortality, anti-feeding or growth inhibition) at 12.5 ppm [4] | mortality at 500 ppm [5] | control at 200 ppm [6] | percent control (mortality or growth inhibition) at 200 ppm [7]

CC(NC(=O)c1cc(OC(F)F)cc(C(F)(F)F)c1)c1nccnc1-c1ncc(OCC(F)F)cn1 (stereo not drawn) [Compound P28, N-[1-[3-[5-(2,2-difluoroethoxy)pyrimidin-2-yl]pyrazin-2-yl]ethyl]-3-(difluoromethoxy)-5-(trifluoromethyl)benzamide]
≥ 80%: mortality at 12 ppm [8] | percent control (mortality, anti-feeding or growth inhibition) at 200 ppm [1] | percent control (mortality or growth inhibition) at 200 ppm [2] | percent control (mortality or growth inhibition) at 200 ppm [3] | mortality at 50 ppm [9] | mortality at 500 ppm [5] | control at 200 ppm [6] | percent control (mortality or growth inhibition) at 200 ppm [7]

CC(NC(=O)c1cc(OC(F)F)cc(C(F)(F)F)c1)c1nccnc1-c1ncc(OC(F)F)cn1 (stereo not drawn) [Compound P26, 3-(difluoromethoxy)-N-[1-[3-[5-(difluoromethoxy)pyrimidin-2-yl]pyrazin-2-yl]ethyl]-5-(trifluoromethyl)benzamide]
≥ 80%: mortality at 12 ppm [8] | percent control (mortality, anti-feeding or growth inhibition) at 200 ppm [1] | percent control (mortality or growth inhibition) at 200 ppm [2] | percent control (mortality or growth inhibition) at 200 ppm [3] | mortality at 50 ppm [9] | mortality at 500 ppm [5] | control at 200 ppm [6]

CC(NC(=O)c1cc(Br)cc(C(F)(F)F)c1)c1nccnc1-c1ncc(OCC(F)F)cn1 (stereo not drawn) [Compound P35, 3-bromo-N-[1-[3-[5-(2,2-difluoroethoxy)pyrimidin-2-yl]pyrazin-2-yl]ethyl]-5-(trifluoromethyl)benzamide]
≥ 80%: mortality at 12 ppm [8] | percent control (mortality, anti-feeding or growth inhibition) at 200 ppm [1] | percent control (mortality or growth inhibition) at 200 ppm [2] | percent control (mortality or growth inhibition) at 200 ppm [3] | percent control (mortality, anti-feeding or growth inhibition) at 12.5 ppm [4] | mortality at 200 ppm [10] | control at 200 ppm [6] | percent control (mortality or growth inhibition) at 200 ppm [7]

CC(NC(=O)c1cc(Cl)cc(C(F)(F)F)c1)c1nccnc1-c1ncc(OCC(F)(F)F)cn1 (stereo not drawn) [Compound P37, 3-chloro-N-[1-[3-[5-(2,2,2-trifluoroethoxy)pyrimidin-2-yl]pyrazin-2-yl]ethyl]-5-(trifluoromethyl)benzamide]
≥ 80%: percent control (mortality, anti-feeding or growth inhibition) at 200 ppm [1] | percent control (mortality or growth inhibition) at 200 ppm [2] | percent control (mortality or growth inhibition) at 200 ppm [3] | percent control (mortality, anti-feeding or growth inhibition) at 12.5 ppm [4] | control at 200 ppm [6] | percent control (mortality or growth inhibition) at 200 ppm [7]

CC(NC(=O)c1cc(Br)cc(C(F)(F)F)c1)c1nccnc1-c1ncc(OC(F)F)cn1 (stereo not drawn) [Compound P23, 3-bromo-N-[1-[3-[5-(difluoromethoxy)pyrimidin-2-yl]pyrazin-2-yl]ethyl]-5-(trifluoromethyl)benzamide]
≥ 80%: mortality at 12 ppm [8] | percent control (mortality, anti-feeding or growth inhibition) at 200 ppm [1] | percent control (mortality or growth inhibition) at 200 ppm [2] | percent control (mortality or growth inhibition) at 200 ppm [3] | mortality at 50 ppm [9] | percent control (mortality, anti-feeding or growth inhibition) at 12.5 ppm [4] | mortality at 500 ppm [5] | control at 200 ppm [6]

CC(NC(=O)c1cc(OCC(F)F)cc(C(F)(F)F)c1)c1nccnc1-c1ccc(OCC(F)F)cn1 (stereo not drawn) [Compound P16, 3-(2,2-difluoroethoxy)-N-[1-[3-[5-(2,2-difluoroethoxy)-2-pyridyl]pyrazin-2-yl]ethyl]-5-(trifluoromethyl)benzamide]
≥ 80%: mortality at 200 ppm [11] | percent control (mortality or growth inhibition) at 200 ppm [3] | mortality at 500 ppm [5] | control at 200 ppm [6]
